Experimental data from US20080234262A1 (Wyeth, priority 2007, published 2008).

Key:
PI3K = PI3K (Homo sapiens, UniProt P42336); experiment: Fluorescence polarization assay for PI3K; format: biochemical; settings: PI3Kα; read-out: PI3Kα IC50;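 note: PI3K kinase reaction on PIP2 with ATP, 30-60 min, product sensed by GST-GRP with red probe in fluorescence polarization (mP), controls without enzyme and at zero time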
prostate line LNCap = experiment: In vitro cell culture growth assay (MTS), LNCap; format: cell-based, human; settings: LNCap cells, three days after drug treatment;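 note: viable cell density read by absorbance at 490 nm, growth expressed as percent of vehicle-treated cells on the same plate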
breast line MDA468 = experiment: In vitro cell culture growth assay (MTS), MDA468; format: cell-based, human; settings: MDA468 cells, three days after drug treatment
Procedure, shortened: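 Three-day drug treatment starting 1 day post-plating; viable cells quantified via MTS metabolism (A490); effect normalised to in-plate vehicle controls as % growth.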

Chain of PI3K (P42336 whole entry): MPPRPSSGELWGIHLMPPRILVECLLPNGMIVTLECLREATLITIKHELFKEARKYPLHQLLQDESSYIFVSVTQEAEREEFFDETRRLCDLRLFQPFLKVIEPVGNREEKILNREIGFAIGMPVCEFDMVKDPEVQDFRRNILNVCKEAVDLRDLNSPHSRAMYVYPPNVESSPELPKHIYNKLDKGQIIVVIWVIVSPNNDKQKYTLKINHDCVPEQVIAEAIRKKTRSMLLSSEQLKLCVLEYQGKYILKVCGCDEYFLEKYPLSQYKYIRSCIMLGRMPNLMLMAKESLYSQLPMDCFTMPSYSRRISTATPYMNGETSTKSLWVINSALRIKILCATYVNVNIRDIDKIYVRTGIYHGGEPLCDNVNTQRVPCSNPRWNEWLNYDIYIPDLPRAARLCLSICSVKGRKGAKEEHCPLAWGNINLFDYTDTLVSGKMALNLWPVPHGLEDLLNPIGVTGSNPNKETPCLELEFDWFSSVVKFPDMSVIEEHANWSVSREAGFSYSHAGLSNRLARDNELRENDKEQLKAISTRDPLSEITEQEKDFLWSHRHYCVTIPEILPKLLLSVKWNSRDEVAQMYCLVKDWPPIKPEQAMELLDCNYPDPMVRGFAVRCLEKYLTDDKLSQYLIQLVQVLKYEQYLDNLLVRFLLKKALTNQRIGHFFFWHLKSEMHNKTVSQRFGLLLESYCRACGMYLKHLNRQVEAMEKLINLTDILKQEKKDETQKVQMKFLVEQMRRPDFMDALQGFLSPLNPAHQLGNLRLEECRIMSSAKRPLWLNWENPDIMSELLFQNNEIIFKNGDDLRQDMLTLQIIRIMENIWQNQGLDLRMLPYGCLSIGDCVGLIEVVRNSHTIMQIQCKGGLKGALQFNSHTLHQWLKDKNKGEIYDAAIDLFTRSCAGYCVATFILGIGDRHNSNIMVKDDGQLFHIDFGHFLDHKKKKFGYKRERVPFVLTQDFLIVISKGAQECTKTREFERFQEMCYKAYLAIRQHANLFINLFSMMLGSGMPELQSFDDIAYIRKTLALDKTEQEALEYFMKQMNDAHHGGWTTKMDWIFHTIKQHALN
Chain of PI3K (P27986 whole entry partner): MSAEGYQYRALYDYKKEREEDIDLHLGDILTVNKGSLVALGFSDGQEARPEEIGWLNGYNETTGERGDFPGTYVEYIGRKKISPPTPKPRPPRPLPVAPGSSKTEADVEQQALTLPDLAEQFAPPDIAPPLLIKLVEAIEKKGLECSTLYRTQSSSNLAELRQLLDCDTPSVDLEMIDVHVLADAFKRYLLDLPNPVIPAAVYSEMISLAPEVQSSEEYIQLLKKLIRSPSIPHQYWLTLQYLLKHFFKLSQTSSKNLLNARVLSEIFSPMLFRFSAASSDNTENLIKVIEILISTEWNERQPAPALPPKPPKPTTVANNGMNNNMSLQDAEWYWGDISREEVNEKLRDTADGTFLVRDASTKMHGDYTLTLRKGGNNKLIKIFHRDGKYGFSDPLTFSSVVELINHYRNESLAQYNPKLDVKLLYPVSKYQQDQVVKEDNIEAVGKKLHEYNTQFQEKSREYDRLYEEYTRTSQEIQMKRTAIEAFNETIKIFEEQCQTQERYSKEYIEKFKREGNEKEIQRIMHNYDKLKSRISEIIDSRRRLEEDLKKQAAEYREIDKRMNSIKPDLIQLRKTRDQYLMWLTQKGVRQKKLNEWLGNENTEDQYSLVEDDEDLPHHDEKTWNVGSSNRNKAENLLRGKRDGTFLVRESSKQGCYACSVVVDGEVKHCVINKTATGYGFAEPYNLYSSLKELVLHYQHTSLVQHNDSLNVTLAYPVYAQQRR

SMILES | IC50 (PI3K) [µM] | IC50 (prostate line LNCap; Homo sapiens, LNCaP, 72 h) [µM] | IC50 (prostate line LNCap) [µM] | IC50 (breast line MDA468; Homo sapiens, 72 h) [µM] | IC50 (breast line MDA468) [µM]
CNC(=NC#N)Nc1ccc(-c2nc(N3CCOCC3)c3cnn(C4CCN(Cc5cccnc5)CC4)c3n2)cc1 [Example 407, 2-cyano-1-methyl-3-(4-{4-morpholin-4-yl-1-[1-(pyridin-3-ylmethyl)piperidin-4-yl]-1H-pyrazolo[3,4-d]pyrimidin-6-yl}phenyl)guanidine] | 0.774 | 1.7 |  | 3.8 | 
CN(C)CC(=O)Nc1ccc(-c2nc(N3CCOCC3)c3cn[nH]c3n2)cc1 [Compound 527, N^2,N^2-dimethyl-N-[4-(4-morpholin-4-yl-1H-pyrazolo[3,4-d]pyrimidin-6-yl)phenyl]glycinamide] | 2.27 | 7 |  | 18 | 
N#CN=C(N)Nc1ccc(-c2nc(N3CCOCC3)c3cnn(C4CCN(C(=O)c5cccnc5)CC4)c3n2)cc1 [Example 411, 2-cyano-1-(4-{4-morpholin-4-yl-1-[1-(pyridin-3-ylcarbonyl)piperidin-4-yl]-1H-pyrazolo[3,4-d]pyrimidin-6-yl}phenyl)guanidine] | 0.344 | 20.1 |  | 12 | 
COCCN1CCC(n2ncc3c(N4CCOCC4)nc(-c4ccc5[nH]ccc5c4)nc32)CC1 [Compound 241, 6-(1H-indol-5-yl)-1-[1-(2-methoxyethyl)piperidin-4-yl]-4-morpholin-4-yl-1H-pyrazolo[3,4-d]pyrimidine] | 5 | 2.4 |  | 4.2 | 
O=C(NO)Nc1ccc(-c2nc(N3CCOCC3)c3cnn(C4CCN(Cc5ccccc5)CC4)c3n2)cc1 [Compound 555, 1-{4-[1-(1-benzylpiperidin-4-yl)-4-morpholin-4-yl-1H-pyrazolo[3,4-d]pyrimidin-6-yl]phenyl}-3-hydroxyurea] | 0.198 | 0.1 |  | 1.1 | 
CC(C)C(=O)N1CCC(n2ncc3c(N4CCOCC4)nc(-c4ccc(NC(=O)NCCF)cc4)nc32)CC1 [Compound 825, 1-(2-fluoroethyl)-3-{4-[1-(1-isobutyrylpiperidin-4-yl)-4-morpholin-4-yl-1H-pyrazolo[3,4-d]pyrimidin-6-yl]phenyl}urea] | 1.67 | 0.15 |  | 0.62 | 
O=C(Cc1ccccc1)N1CCC(n2ncc3c(N4CCOCC4)nc(-c4ccc5[nH]ccc5c4)nc32)CC1 [Compound 242, 6-(1H-indol-5-yl)-4-morpholin-4-yl-1-[1-(phenylacetyl)piperidin-4-yl]-1H-pyrazolo[3,4-d]pyrimidine] | 0.692 | 0.7 |  | 3 | 
Oc1cccc(-c2nc(N3CCOCC3)c3cnn(C4CCN(CC5CC5)CC4)c3n2)c1 [Example 13] | 0.034 | 0.27 |  | 1.5 | 

More lines, main results first:

IC50 (PI3K) [µM] | IC50 (prostate line LNCap; Homo sapiens, LNCaP, 72 h) [µM] | IC50 (prostate line LNCap) [µM] | SMILES | IC50 (breast line MDA468; Homo sapiens, 72 h) [µM] | IC50 (breast line MDA468) [µM]
2.42 |  | 4.2 | c1cc2cc(-c3nc(N4CCOCC4)c4cnn(C5CCCCO5)c4n3)ccc2[nH]1 (stereo not drawn) [Compound 928, 6-(1H-indol-5-yl)-4-morpholin-4-yl-1-(tetrahydro-2H-pyran-2-yl)-1H-pyrazolo[3,4-d]pyrimidine] |  | 1
0.224 |  | 0.8 | CNC(=O)Nc1ccc(-c2nc(N3CCOCC3)c3cnn(C4CCN(C(C)=O)CC4)c3n2)cc1 [Compound 716, 1-{4-[1-(1-acetylpiperidin-4-yl)-4-morpholin-4-yl-1H-pyrazolo[3,4-d]pyrimidin-6-yl]phenyl}-3-methylurea] |  | 1.2
0.173 | 1 |  | CNC(=O)Nc1ccc(-c2nc(N3CCOCC3)c3cnn(C4CCN(C(=O)OCCN(C)C)CC4)c3n2)cc1 [Compound 803, 2-(dimethylamino)ethyl 4-(6-{4-[(methylcarbamoyl)amino]phenyl}-4-morpholin-4-yl-1H-pyrazolo[3,4-d]pyrimidin-1-yl)piperidine-1-carboxylate] | 1 | 
0.46 | 2 |  | COc1ccc(NC2CCC(n3ncc4c(N5CCOCC5)nc(-c5ccc6[nH]ccc6c5)nc43)CC2)cc1 (stereo not drawn) [Compound 153] | 6.5 | 
